Data on 34 compounds can be found in PubChem BioAssay AID2124 (Sanford-Burnham Center for Chemical Genomics, 2009).

Inconclusive results are not listed. Active and inactive are the calls of the source. No rule for the calls is given here; tested in MIN6 cells. Some results are limits rather than exact numbers.

Test [1] is described as follows: GFP-wavelength compound autofluorescence in cells – imaging, high-content imaging, artefact control, dose response (AID 2124).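 As to cell count: cells exposed to compound for 48 hours before fixing.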 Conditions: cells, GFP-channel autofluorescence, high-content imaging; cell count; at 10 µM.
The test system of test [2] is cells, GFP-channel autofluorescence, high-content imaging. The description is as above.

For `CN(C)c1ccc(/C=C/C(O)=C2/C(=O)N(C)C3(C)CC2c2ccccc2O3)cc1` (stereo not drawn), in test [1], the cell count was determined as 2640 cells. Besides, in test [2], the EC50 (usually the concentration giving half of the maximal effect) was 7.25 µM.
In test [1], `O=C(O)c1cc(-c2ccc(/C=C3/SC(=S)N(Cc4ccccc4)C3=O)o2)ccc1Cl` came in with a cell count of 2840 cells. In addition, in test [2], the EC50 was 7.47 µM.
Taken in the same sequence, the figures for `Cc1cc(N2CCCC2)ccc1/C=C1/C(=O)N(C)C(=S)N1C` were 2940 cells and 7.11 µM.
Taken in the same sequence, the figures for `COc1cccc2sc(NNC(=O)C3=COCCO3)nc12` were 3320 cells and 8.52 µM.
For the compound `CCOCCCNc1nc2c(C)cccn2c(=O)c1/C=C1\SC(=S)N(C(C)CC)C1=O` (stereo not drawn), in test [1], the cell count was found to be 2910 cells. Also, in test [2], the EC50 is > 16 µM (inactive).
Compound `CC(C)(C)NC(=S)N/N=C\c1ccc(-c2ccc([N+](=O)[O-])cc2)o1` returned a cell count in test [1] of 3000 cells. The EC50 in test [2] is 11.4 µM (inactive).
Taken in the same sequence, the figures for `Cc1nonc1NC(=O)CSc1nc2c(C)cccc2cc1C#N` were 3270 cells and 9.41 µM.
Taken in the same sequence, the figures for `CC(=O)c1c(C)[nH]c(-c2ccccc2)nc1=S` were 3120 cells and 2.37 µM.
In the case of `C=CCN1C(=O)/C(=C/c2ccc(N(C)C)cc2)S/C1=N\c1nnc(CC)s1`, in test [1], the cell count came to 2900 cells. Moreover, the EC50 in test [2] is 5.38 µM.
`COc1ccc(/C=C2\C(=O)NC(=S)N2C(=O)c2ccc(F)cc2)cc1` came in with a cell count in test [1] of 2980 cells. Besides, in test [2], the EC50 was > 16 µM (inactive).
In test [1], `CC(=O)Nc1ccc(N=Cc2c(O)c(C(=O)Nc3ccccc3)cc3ccccc23)cc1` came in with a cell count of 1540 cells. In addition, the EC50 in test [2] is 11.1 µM (inactive).
Taken in the same sequence, the figures for `O=[N+]([O-])c1ccc(/C=C/C2=NN(c3ccccc3)C(c3ccco3)C2)o1` (stereo not drawn) were 3240 cells and 3.87 µM.
Turning to `CC(C)NC(=O)/C(C#N)=C/c1ccc(N(C)C)o1`, the cell count in test [1] was 3230 cells. Also, in test [2], the EC50 is 14.3 µM (inactive).
In test [1], `COc1ccc(CN2C(=O)/C(=C/c3ccc(-c4ccc(Cl)c(C(=O)O)c4)o3)SC2=S)cc1` came in with a cell count of 3020 cells. The EC50 in test [2] is > 16 µM (inactive).
Taken in the same sequence, the figures for `C=CCN1C(=O)c2cccc3c(N4CCCCC4)ccc(c23)C1=O` were 3300 cells and 6.64 µM.
The compound `C=CCN1C(=O)/C(=C\C=C2\N(C)c3ccccc3C2(C)C)SC1=S` displayed a cell count in test [1] of 2620 cells. Further, the EC50 in test [2] was 6.86 µM.
Taken in the same sequence, the figures for `COc1ccc(C2C(C(C)=O)=C(C)N=c3s/c(=C\c4cc(C)n(C)c4C)c(=O)n32)c(OC)c1` (stereo not drawn) were 3650 cells and 6.06 µM.
Taken in the same sequence, the figures for `O=C(/C=C/c1ccc(N2CCC(c3ccccc3)=N2)cc1)c1ccccc1` were 2900 cells and 5.99 µM.
Taken in the same sequence, the figures for `O=[N+]([O-])c1ccc(N/N=C/c2ccc[nH]2)cc1` were 841 cells and 4.32 µM.
For `CCOC(=O)CN1C(=O)S/C(=C/c2ccc(N3CCCCC3)o2)C1=O`, the cell count in test [1] came to 3180 cells. Further, in test [2], the EC50 is 7.22 µM.
In test [1], `CCCCN1C(=O)/C(=C/C=C2\N(C)c3ccccc3C2(C)C)SC1=S` gave a cell count of 2910 cells. In addition, the EC50 in test [2] was 2.65 µM.
With `O=C(O)c1ccccc1N/N=C/c1c(Sc2nnnn2-c2ccccc2)nc2ccccn2c1=O`, the cell count in test [1] amounted to 3260 cells. For the same compound, the EC50 in test [2] was 10.7 µM (inactive).
In the case of `COc1ccc(C(=O)/C=C/c2ccc(N(C)C)cc2)c(OC)c1`, the cell count in test [1] came to 2380 cells. Further, the EC50 in test [2] was 9.89 µM.
On to `Cc1oc(C)c2c(=O)ccc3c(c12)OC(N)=C(C#N)C3c1ccc(F)cc1` (stereo not drawn), for which, in test [1], the cell count came out at 2880 cells. In addition, the EC50 in test [2] was > 16 µM (inactive).
Taken in the same sequence, the figures for `Cc1csc(NC(=O)c2sc3nc(-c4cccs4)ccc3c2N)n1` were 2840 cells and 15.7 µM (inactive).
Taken in the same sequence, the figures for `CN1/C(=C\C=C2/SC(=S)NC2=O)C(C)(C)c2ccccc21` were 147 cells and 6.13 µM.
Turning to `CCCN1C=CC(=C/C=C(\C#N)C(=O)OCC)C=C1`, the cell count in test [1] worked out at 2900 cells. Besides, the EC50 in test [2] is 6.81 µM.
Compound `CCCCOc1ccc(-c2cc(C(F)(F)F)c(C#N)c(SCC(=O)O)n2)cc1` returned a cell count in test [1] of 3060 cells. For the same compound, the EC50 in test [2] was 12.3 µM (inactive).
Taken in the same sequence, the figures for `Cn1c(/C(C#N)=C/c2ccc(-c3ccc(S(N)(=O)=O)cc3)o2)nc2ccccc21` were 2680 cells and 8.08 µM.
Consider `COc1ccccc1N/C=C/c1onc(C)c1[N+](=O)[O-]`, for which the cell count in test [1] worked out at 3140 cells. In test [2], the EC50 was 7.9 µM.
In the case of `Cc1c2ccccc2nc2c(F)c(NC(C)C)c(F)c(F)c12`, the cell count in test [1] was found to be 2550 cells. Moreover, the EC50 in test [2] was 9.12 µM.
Taken in the same sequence, the figures for `COc1cccc(C2C3CN(C)CC=C3C(C#N)=C(N)C2(C#N)C#N)c1OC` (stereo not drawn) were 2400 cells and 7.38 µM.
In test [1], `COc1ccc(NC(=O)/C(C#N)=C\c2ccc(N3CCOCC3)o2)cc1` gave a cell count of 3270 cells. For the same compound, the EC50 in test [2] is 11.6 µM (inactive).
Taken in the same sequence, the figures for `COc1cc(N2CCCC2)c(OC)cc1/C=C(/C#N)c1cccc(F)c1` were 2910 cells and 6.47 µM.
